Measurements taken from US11306082B2, “Esters of dihydrotetrabenazine” (Foresee Pharmaceuticals Co., Ltd., priority 2017, dated 2022).
Converted amounts (≈) assume the structure as drawn.

Columns and labels:
VMAT2 [1] = target: VMAT2 (Bos taurus, UniProt Q27963); settings: Scherman et al., 1983; cited from earlier work
[2] = Aqueous solubility of compounds; format: physicochemical; settings: for solubility: aqueous buffer, thermodynamic from solid, 37° C.; for aqueous solubility compared with compound IV: all tested conditions
Experimental: Compound suspensions (2 mg/m L) in various aqueous solutions, including 10 mM pH 4.0 citrate-saline buffer, 10 mM pH 5.0 citrate-saline buffer, 10 mM pH 5.8 PBS, 10 mM pH 7.4 PBS, 10 mM pH 8.5 borate-saline buffer, pure water and serum, were stirred at 37° C. for 2-3 days. Daily, 0.5 to 1 mL aliquots were taken and centrifuged at 14,000 rpm for 2 min without temperature control. The supernatant was analyzed by HPLC to determine the amount of dissolved compounds.

[3] = Solubility in pharmaceutical acceptable organic solvents; format: physicochemical; settings: for solubility: organic solvent or mixture, thermodynamic from solid, 37° C.
Experimental: Previously, non-aqueous solvents, such as organic solvents, have long been utilized in injectable pharmaceutical products to dissolve water-insoluble drugs. Here, the solubility of compounds of the present application in various organic solvents were tested. The compound suspensions in various pharmaceutical acceptable organic solvents, including dimethylacetamide (DMAc), Dimethyl sulfoxide (DMSO), triacetin (TA), were stirred at 37° C. at designed time interval. At the designed time point, 0.5 mL aliquots were taken and centrifuged at 14,000 rpm for 2 min without temperature control. The supernatant was diluted with ACN and then analyzed by HPLC to determine the amount of dissolved compounds.

[4] = Color stability in organic solvents at 37° C.; format: physicochemical; settings: incubation at 37° C. for 7 days, organic solvents (FIG. 1)
[5] = Solubility in pharmaceutical acceptable oils; format: physicochemical; settings: for solubility in pharmaceutical acceptable oils (in words): castor, peanut, soybean oil; for solubility: oil or lipid, thermodynamic from solid, 37° C.
Experimental: Conventionally, fatty acids are used to conjugate with a drug to enhance drug's lipophilicity to increase its solubility in oils. The solubility of compounds of the present application in various oils were tested. The suspension of compounds in various pharmaceutical acceptable oils, including castor oil, sesame oil, cottonseed oil, peanut oil and soybean oil, were stirred at 37° C. for 2-3 days. At designed time point, about 200 to 300 μL aliquots were taken and centrifuged at 14,000 rpm for 2 min without temperature control. The supernatant was carefully withdrawn and extracted with 9 folds of ACN. The mixture was then vortexed for 30 sec and subsequently centrifuged at 14,000 rpm for 2 min without temperature control. The supernatant (300 uL) was taken and diluted with 1 fold of isopropanol (IPA) and then analyzed by HPLC to determine the amount of dissolved compounds. The oil without compound after same extraction/dilution step was used as control. […] The higher oil solubility can be advantageously used to make long acting or sustained release formulation to deliver the active compounds.

[6] = target: Vesicular Monoamine Transporter Isoform 2 (VMAT2) (UniProt Q01827); assay: VMAT2 competition binding assay ([3H]dihydrotetrabenazine, whole brain membranes); settings: for IC50: read-out: VMAT2 binding affinity IC50, [3H]Dihydrotetrabenazine 10 nM, 30 min at 25° C.; for Ki: read-out: VMAT2 binding affinity Ki, Cheng-Prusoff from IC50
Experimental: IC50 values were determined by a non-linear, least squares regression analysis using MathIQ™ (ID Business Solutions Ltd., UK).

VMAT2 [7] = settings: see 17 of the Declaration; cited from earlier work
[8] = human liver assay, response in application Ser. No. 11/937,445; cited from earlier work
VMAT2 [9] = target: VMAT2 (Rattus norvegicus, UniProt Q01827); settings: as disclosed in U.S. Pat. No. 8,039,627; read-out: VMAT2 binding affinity, Ki; cited from earlier work
[10] = test system: porcine liver esterase (PLE); assay: Enzymatic ester hydrolysis via porcine liver esterase; format: in vitro ADME
[11] = borate-saline buffer, Borate (10 mM, pH 8.5)
[12] = citrate-saline buffer, Citrate buffer (10 mM, pH 5.0)

Chain of VMAT2 (Rattus norvegicus, UniProt Q01827) (Q01827 whole entry): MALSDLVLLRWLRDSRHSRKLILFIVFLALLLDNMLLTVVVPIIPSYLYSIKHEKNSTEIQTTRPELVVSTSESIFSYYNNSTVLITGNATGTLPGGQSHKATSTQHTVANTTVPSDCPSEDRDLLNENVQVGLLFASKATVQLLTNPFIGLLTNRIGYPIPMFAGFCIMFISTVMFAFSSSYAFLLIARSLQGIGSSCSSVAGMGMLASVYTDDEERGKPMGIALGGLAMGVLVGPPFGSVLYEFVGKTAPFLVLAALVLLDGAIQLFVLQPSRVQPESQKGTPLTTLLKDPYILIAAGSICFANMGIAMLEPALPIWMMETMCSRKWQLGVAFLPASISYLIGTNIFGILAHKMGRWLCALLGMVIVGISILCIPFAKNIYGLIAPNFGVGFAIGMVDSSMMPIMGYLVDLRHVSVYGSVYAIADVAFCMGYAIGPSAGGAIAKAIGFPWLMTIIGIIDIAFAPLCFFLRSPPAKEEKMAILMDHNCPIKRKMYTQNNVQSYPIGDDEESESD
Chain of VMAT2 (Bos taurus, UniProt Q27963) (Q27963 whole entry): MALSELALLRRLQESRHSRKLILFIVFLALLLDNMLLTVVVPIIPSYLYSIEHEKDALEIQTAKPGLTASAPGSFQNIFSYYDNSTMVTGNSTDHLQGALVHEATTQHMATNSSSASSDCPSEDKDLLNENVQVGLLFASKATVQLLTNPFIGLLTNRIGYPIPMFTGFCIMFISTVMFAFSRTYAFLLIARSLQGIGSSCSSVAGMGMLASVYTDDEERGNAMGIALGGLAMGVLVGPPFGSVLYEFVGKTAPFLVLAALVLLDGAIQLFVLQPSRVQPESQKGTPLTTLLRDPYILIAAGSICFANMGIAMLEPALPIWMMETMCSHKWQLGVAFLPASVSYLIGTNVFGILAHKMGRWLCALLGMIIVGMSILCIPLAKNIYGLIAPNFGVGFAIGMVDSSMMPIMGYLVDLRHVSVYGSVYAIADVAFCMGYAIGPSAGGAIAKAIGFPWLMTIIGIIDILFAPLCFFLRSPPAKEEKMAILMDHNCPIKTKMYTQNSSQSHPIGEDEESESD

| SMILES | solubility ([2]; PBS (10 mM, pH 5.8)) | solubility ([2]; PBS (10 mM, pH 7.4)) | solubility [2, 11] | solubility [2, 12] | solubility ([3]; DMAc) | solubility ([3]; DMSO) | solubility ([3]; Triacetin) | color change in organic solvents [4] | solubility in pharmaceutical acceptable oils (in words) [5] | solubility ([5]; Castor oil) | solubility ([5]; Peanut oil) | solubility ([5]; Soybean oil) | aqueous solubility compared with compound IV [2] | IC50 [6] | Ki [6] | conversion to (+)-α-DHTBZ [8] | also measured |
| --- | --- | --- | --- | --- | --- | --- | --- | --- | --- | --- | --- | --- | --- | --- | --- | --- | --- |
| COc1cc2c(cc1OC)C1CC(=O)C(CC(C)C)CN1CC2 (racemic) [TBZ, 3-isobutyl-9,10,dimethoxy-1,3,4,6,7,11b-hexahydro-2H-pyrido[2,1-a]isoquinolin-2-one] | – | – | – | – | – | – | – | – | – | – | – | – | – | – | – | – | IC50 (VMAT2 [1]): 3.2 nM |
| COc1cc2c(cc1OC)[C@H]1C[C@@H](O)[C@H](CC(C)C)CN1CC2 [Compd IV, (2R, 3R, 11bR)-3-isobutyl-9,10-dimethoxy-1,3,4,6,7,11b-hexahydro-2H-pyrido[2,1-a]isoquinolin-2-ol, reference compound] | 1380 µg/mL (≈ 4.32 mM) | 244 µg/mL (≈ 0.763 mM) | 140 µg/mL (≈ 0.439 mM) | > 2000 µg/mL | 555 mg/mL (≈ 1740 mM) | 410 mg/mL (≈ 1280 mM) | 26.1 mg/mL (≈ 81.7 mM) | significant color change | fair to good solubility | 30 mg/mL (≈ 93.9 mM) | 10.1 mg/mL (≈ 31.6 mM) | 8 mg/mL (≈ 25 mM) | – | – | – | – | – |
| CCCCCCCCCCCCCCCCCCCCCC(=O)O[C@@H]1C[C@@H]2c3cc(OC)c(OC)cc3CCN2C[C@H]1CC(C)C [Compd 1-2, (2R,3R, 11bR)-3-isobutyl-9,10-dimethoxy-1,3,4,6,7,11b-hexahydro-2H-pyrido[2,1 a]isoquinolin-2-yl behenate] | < 1 µg/mL | < 1 µg/mL | 1.7 µg/mL (≈ 0.00265 mM) | < 1 µg/mL | 8.81 mg/mL (≈ 13.7 mM) | 0.15 mg/mL (≈ 0.234 mM) | – | no or minimal color change | fair to good solubility | 31.4 mg/mL (≈ 48.9 mM) | 70.2 mg/mL (≈ 109 mM) | 96.4 mg/mL (≈ 150 mM) | significantly lower aqueous solubility | > 10 µM | > 10 µM | – | – |
| COc1cc2c(cc1OC)C1CC(OC(C)=O)C(CC(C)C)CN1CC2 (stereo not shown) [acetate ester of Kilbourn] | – | – | – | – | – | – | – | – | – | – | – | – | – | – | – | no conversion | Ki (VMAT2 [7]): 16 nM |
| COc1cc2c(cc1OC)[C@H]1C[C@@H](OC(=O)[C@@H](N)C(C)C)[C@H](CC(C)C)CN1CC2 [VBZ, (S)-2-amino-3-methyl-butyric acid (2R, 3R, 11bR)-3-isobutyl-9,10-dimethoxy-1,3,4,6,7,11b-hexahydro-2H-pyrido[2,1-a]isoquinolin-2-yl] | – | – | – | – | – | – | – | – | – | – | – | – | – | – | – | can release the active (+)-α-DHTBZ | Ki (VMAT2 [9]): 187 nM |
| CCCCCCCCCCCCCCCC(=O)O[C@@H]1C[C@@H]2c3cc(OC)c(OC)cc3CCN2C[C@H]1CC(C)C [Compd 1-1, (2R,3R, 11bR)-3-isobutyl-9,10-dimethoxy-1,3,4,6,7,11b-hexahydro-2H-pyrido[2,1-a]isoquinolin-2-yl palmitate] | < 1 µg/mL | 1 µg/mL (≈ 0.00179 mM) | 32.6 µg/mL (≈ 0.0584 mM) | < 1 µg/mL | 513 mg/mL (≈ 919 mM) | 7.8 mg/mL (≈ 14 mM) | 29.9 mg/mL (≈ 53.6 mM) | no or minimal color change | fair to good solubility | 370 mg/mL (≈ 663 mM) | 266 mg/mL (≈ 478 mM) | 277 mg/mL (≈ 496 mM) | significantly lower aqueous solubility | > 10 µM | > 10 µM | – | solubility in organic solvents (in words) ([3]; all tested solvent (DMSO, DMAc, triacetin)): good solubility; hydrolysis to release (+)-α-DHTBZ (in words) ([10]; PLE/compound ratio of 5 or above): can be hydrolyzed; (+)-α-DHTBZ released by ester hydrolysis ([10]; PLE:compound 1-1 1:1, incubation 80 min, 37° C.): BQL |
